Laboratory results reported in patent publication US6156700A, “3-(1,2-Benzisothiazol- and isoxazol-5-yl)-2,4(1H,3H)-pyrimidinedione or thione and 3-(1,2-benzisothiazol- and isoxazol-5-yl)-4(3H)-pyrimidinone or thione herbicidal agents” (American Cyanmid Company, priority 1998, dated 2000).

Key:
Galium, Galium aparine [1] = assay: Preemergence herbicidal evaluation, GALAP; format: in vivo; conditions: 0.2500 kg/ha
Description: (§1) Results of herbicide evaluation are expressed on a rating scale (0-9). The scale is based upon a visual observation of plant stand, vigor, malformation, size, chlorosis and overall plant appearance as compared with a control.
(§2) The preemergence herbicidal activity of the test compounds of the present invention is exemplified by the following tests in which the seeds of a variety of monocotyledonous and dicotyledonous plants are separately mixed with potting soil and planted on top of approximately one inch of soil in separate pint cups. After planting, the cups are sprayed with the selected aqueous acetone solution containing test compound in sufficient quantity to provide the equivalent of about 0.0156 to 0.500 kg per hectare of test compound per cup. The treated cups are then placed on greenhouse benches, watered and cared for in accordance with conventional greenhouse procedures. From four to five weeks after treatment, the tests are terminated and each cup is examined and rated according to the rating system provided in Example 185.
(§3) The compounds evaluated are reported by compound number given in Example 185.

[2] = test system: Velvetleaf, Abutilon theophrasti; assay: Postemergence herbicidal evaluation, ABUTH; format: in vivo, Medic.; conditions: 0.0630 kg/ha
How it was run: (§4)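 Postemergence spray on ~2-wk seedlings: ~0.0157–0.500 kg/ha in acetone/water 50/50, 0.5% TWEEN 20, 40 psi. Greenhouse hold 4–5 wk, then 0–9 visual score; repeat tests averaged.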

[3] = test system: Ragweed, Common, Ambrosia artemisifolia; assay: Postemergence herbicidal evaluation, AMBEL; format: in vivo, L.; conditions: 0.0630 kg/ha
How it was run: as §4

[4] = test system: Soybean, Williams, Glycine max; assay: Preemergence herbicidal evaluation, GLXMAW; format: in vivo, (L.) Merr. cv Williams; conditions: 0.2500 kg/ha
Description: as §1, §2, §3

[5] = test system: Rice, Tebonnet, Oryza sativa; assay: Preemergence herbicidal evaluation, ORYSAT; format: in vivo, (L.) Tebonnet; conditions: 0.2500 kg/ha
Description: as §1, §2, §3

[6] = test system: Ragweed, Common, Ambrosia artemisifolia; assay: Preemergence herbicidal evaluation, AMBEL; format: in vivo, L.; conditions: 0.2500 kg/ha
Description: as §1, §2, §3

[7] = test system: Barnyardgrass, Echinochloa crus-galli; assay: Preemergence herbicidal evaluation, ECHCG; format: in vivo, (L.) Beau; conditions: 0.2500 kg/ha
Description: as §1, §2, §3

Galium, Galium aparine [8] = assay: Postemergence herbicidal evaluation, GALAP; format: in vivo; conditions: 0.0630 kg/ha
How it was run: as §4

[9] = test system: Wheat, Winter, cv Riband, Triticum aestivum; assay: Postemergence herbicidal evaluation, TRZAWR; format: in vivo; conditions: 0.0630 kg/ha
How it was run: as §4

Corn, Field, Zea mays [10] = assay: Preemergence herbicidal evaluation, ZEAMX; format: in vivo, L.; conditions: 0.2500 kg/ha
Description: as §1, §2, §3

[11] = test system: Wheat, Winter, cv Riband, Triticum aestivum; assay: Preemergence herbicidal evaluation, TRZAWR; format: in vivo; conditions: 0.2500 kg/ha
Description: as §1, §2, §3

[12] = test system: Lambsquarters, Common, Chenopodium album; assay: Postemergence herbicidal evaluation, CHEAL; format: in vivo, L.; conditions: 0.0630 kg/ha
How it was run: as §4

[13] = test system: Morningglory, Ivyleaf, Ipomoea hederacea; assay: Preemergence herbicidal evaluation, IPOHE; format: in vivo, (L.) Jacq.; conditions: 0.2500 kg/ha
Description: as §1, §2, §3

[14] = test system: Rice, Tebonnet, Oryza sativa; assay: Postemergence herbicidal evaluation, ORYSAT; format: in vivo, (L.) Tebonnet; conditions: 0.0630 kg/ha
How it was run: as §4

[15] = test system: Barnyardgrass, Echinochloa crus-galli; assay: Postemergence herbicidal evaluation, ECHCG; format: in vivo, (L.) Beau; conditions: 0.0630 kg/ha
How it was run: as §4

[16] = test system: Velvetleaf, Abutilon theophrasti; assay: Preemergence herbicidal evaluation, ABUTH; format: in vivo, Medic.; conditions: 0.2500 kg/ha
Description: as §1, §2, §3

[17] = test system: Sicklepod, Cassia obtusifolia; assay: Preemergence herbicidal evaluation, CASOB; format: in vivo, L.; conditions: 0.2500 kg/ha
Description: as §1, §2, §3

[18] = test system: Lambsquarters, Common, Chenopodium album; assay: Preemergence herbicidal evaluation, CHEAL; format: in vivo, L.; conditions: 0.2500 kg/ha
Description: as §1, §2, §3

[19] = test system: Soybean, Williams, Glycine max; assay: Postemergence herbicidal evaluation, GLXMAW; format: in vivo, (L.) Merr. cv Williams; conditions: 0.0630 kg/ha
How it was run: as §4

[20] = test system: Morningglory, Ivyleaf, Ipomoea hederacea; assay: Postemergence herbicidal evaluation, IPOHE; format: in vivo, (L.) Jacq.; conditions: 0.0630 kg/ha
How it was run: as §4

[21] = test system: Foxtail, Green, Setaria viridis; assay: Postemergence herbicidal evaluation, SETVI; format: in vivo, (L.) Beau; conditions: 0.0630 kg/ha
How it was run: as §4

[22] = test system: Foxtail, Green, Setaria viridis; assay: Preemergence herbicidal evaluation, SETVI; format: in vivo, (L.) Beau; conditions: 0.2500 kg/ha
Description: as §1, §2, §3

Corn, Field, Zea mays [23] = assay: Postemergence herbicidal evaluation, ZEAMX; format: in vivo, L.; conditions: 0.0630 kg/ha
How it was run: as §4

[24] = test system: Sicklepod, Cassia obtusifolia; assay: Postemergence herbicidal evaluation, CASOB; format: in vivo, L.; conditions: 0.0630 kg/ha
How it was run: as §4

Compound	herbicide rating (0-9) (Galium, Galium aparine [1])	herbicide rating (0-9) [2]	herbicide rating (0-9) [3]	herbicide rating (0-9) [4]	herbicide rating (0-9) [5]	herbicide rating (0-9) [6]	herbicide rating (0-9) [7]	herbicide rating (0-9) (Galium, Galium aparine [8])	herbicide rating (0-9) [9]	herbicide rating (0-9) (Corn, Field, Zea mays [10])	herbicide rating (0-9) [11]	herbicide rating (0-9) [12]	herbicide rating (0-9) [13]	herbicide rating (0-9) [14]	herbicide rating (0-9) [15]	herbicide rating (0-9) [16]	herbicide rating (0-9) [17]	herbicide rating (0-9) [18]	herbicide rating (0-9) [19]	herbicide rating (0-9) [20]	other results
Cn1c(C(F)(F)F)cc(=O)n(-c2ccc3onc(-c4ccccc4)c3c2)c1=O [Compound 25, 1-Methyl-3-(3-phenyl-1,2-benzisoxazol-5-yl)-6-(trifluoromethyl)-2,4 (1H,3H)-pyrimidinedione]	8.0	9.0	5.0	9.0	7.0	9.0	9.0	5.0	3.5	7.0	7.0	9.0	9.0	3.5	2.0	9.0	9.0	9.0	7.0	8.0	herbicide rating (0-9) [21]: 7.0; herbicide rating (0-9) [22]: 9.0; herbicide rating (0-9) (Corn, Field, Zea mays [23]): 4.5
COc1c(C)cc(C)cc1-c1nsc2ccc(-n3c(=O)cc(C(F)(F)F)n(C)c3=O)cc12 [Compound 18, 3-[3-(2-Methoxy-3,5-xylyl)-1,2-benzisothiazol-5-yl]-1-methyl-6-(trifluoromethyl)-2,4(1H,3H)-pyrimidinedione]	1.0	9.0	6.0	2.0	0.0	9.0	5.0	5.0	2.5	3.0	0.0	9.0	4.0	2.0	4.0	9.0	4.0	9.0	4.0	9.0	herbicide rating (0-9) [21]: 5.0; herbicide rating (0-9) [22]: 9.0; herbicide rating (0-9) (Corn, Field, Zea mays [23]): 5.0
COC(=O)C(C)Oc1ccc(C(C)C)cc1-c1nsc2ccc(-n3c(=O)cc(C(F)(F)F)n(C)c3=O)cc12 (stereo not drawn) [Compound 30, Methyl 2-{2-{5-[3,6-dihydro-3-methyl-4-(trifluoromethyl)-2,6-dioxo-1(2H)-pyrimidinyl]-1,2-benzisothiazol-3-yl}-4-isopropylphenoxy}propionate]	7.0	9.0	9.0	6.0	6.0	9.0	7.0	5.0	7.5	7.0	7.0	9.0	9.0	7.5	9.0	9.0	9.0	9.0	7.0	9.0	herbicide rating (0-9) [24]: 9.0; herbicide rating (0-9) [21]: 9.0; herbicide rating (0-9) [22]: 9.0; herbicide rating (0-9) (Corn, Field, Zea mays [23]): 9.0
COc1ccc(C)cc1-c1nsc2ccc(-n3c(=O)cc(C)n(C)c3=O)cc12 [Compound 24, 3-[3-(6-Methoxy-m-tolyl)-1,2-benzisothiazol-5-yl]-1,6-dimethyl-2,4(1H,3H)-pyrimidinedione]	3.0	7.0	3.0	1.0	0.0	5.0	3.0	0.0	3.0	2.0	0.0	0.0	9.0	0.5	0.0	9.0	4.0	9.0	3.0	4.0	herbicide rating (0-9) [21]: 0.0; herbicide rating (0-9) [22]: 5.0; herbicide rating (0-9) (Corn, Field, Zea mays [23]): 5.0
COC(=O)C(C)Oc1c(C)cc(C)cc1-c1nsc2ccc(-n3c(=O)cc(C(F)(F)F)n(C)c3=O)cc12 (stereo not drawn) [Compound 27, Methyl 2-{{6-{5-[3,6-dihydro-3-methyl-2,6-dioxo-4-(trifluoromethyl)-1(2H)-pyrimidinyl]-1,2-benzisothiazol-3-yl}-2,4-xylyl}oxy}propionate]	2.0	9.0	9.0	9.0	2.0	9.0	7.0	9.0	8.5	4.0	5.0	9.0	6.0	4.5	7.0	9.0	9.0	9.0	7.0	9.0	herbicide rating (0-9) [24]: 4.0; herbicide rating (0-9) [21]: 7.0; herbicide rating (0-9) [22]: 9.0; herbicide rating (0-9) (Corn, Field, Zea mays [23]): 7.0
COC(=O)COc1c(C)cc(C)cc1-c1nsc2ccc(-n3c(=O)cc(C(F)(F)F)n(C)c3=O)cc12 [Compound 26, Methyl {{6-{5-[3,6-dihydro-3-methyl-2,6-dioxo-4-(trifluoromethyl)-1(2H)-pyrimidinyl]-1,2-benzisothiazol-3-yl}-2,4-xylyl}oxy}acetate]	4.0	9.0	9.0	6.0	5.0	9.0	7.0	9.0	8.0	7.0	5.0	9.0	7.0	2.0	9.0	9.0	9.0	9.0	7.5	9.0	herbicide rating (0-9) [24]: 6.0; herbicide rating (0-9) [21]: 9.0; herbicide rating (0-9) [22]: 9.0; herbicide rating (0-9) (Corn, Field, Zea mays [23]): 7.0
